The values below come from patent publication US20110166121A1 (LG LIFE SCIENCES LTD., priority 2008, published 2011).

SMILES strings stand for the structures. Structures can show the parent of a compound that is named as a salt.

The test concerns Human platelet aggregation caused by ADP. Kind of test: Inhibition of ADP-induced platelet aggregation (Mimic-human PRP). The test is classed as cell-based. To be noted: 20 μM ADP, human platelet concentrate diluted with PPP, absorption at 595 nm. The essentials: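 Human PRP diluted with PPP to 3–4×10^8 platelets/mL was preincubated 20 min at room temperature with compound (0.01–30 μM, DMSO), then stimulated with 20 μM ADP. Aggregation read as A595 increase at 3 min versus 0 and 20 μM ADP controls; Ki from sigmoidal non-linear regression.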

Usually Ki stands for the dissociation constant of the complex between target and ligand, obtained from inhibition or displacement. Low readings indicate tighter binding, high ones weaker binding. Molecule `CCCc1cc2c(N3CCn4c(nnc4C(F)(F)F)C3)nc(N3CC4OC(=O)N[C@H]4C3)nc2s1` (stereo partly drawn) [Example 7-26, (S)-5-[6-Propyl-4-(3-trifluoromethyl-5,6-dihydro-8H-[1,2,4]triazolo[4,3-a]pyrazin-7-yl)-thieno[2,3-d]pyrimidin-2-yl]-hexahydro-pyrrolo[3,4-d]oxazol-2-one] returned a Ki of 0.0021 µM.

The molecule `CCCc1cc2c(N3CCn4c(nnc4C(F)(F)F)C3)nc(N3CC(N)C(N)C3)nc2s1` (centres unmarked) [Example 7-27, Di-hydrochloric acid salt of 1-[6-Propyl-4-(3-trifluoromethyl-5,6-dihydro-8H-[1,2,4]triazolo[4,3-a]pyrazin-7-yl)-thieno[2,3-d]pyrimidin-2-yl]-pyrrolidine-3,4-diamine] returned an inhibition constant Ki of 0.017 µM.

Regarding `CCCc1cc2c(N3CCn4c(nnc4C(F)(F)F)C3)nc(N3CC(NC(C)=O)C(NC(C)=O)C3)nc2s1` (centres unmarked) [Example 7-28, N-{4-Acetylamino-1-[6-propyl-4-(3-trifluoromethyl-5,6-dihydro-8H-[1,2,4]triazolo[4,3-a]pyrazin-7-yl)-thieno[2,3-d]pyrimidin-2-yl]-pyrrolidin-3-yl}-acetamide], the Ki was found to be 0.042 µM. Compared with the last molecule, the Ki is about 2.5-fold higher.

`CCCc1cc2c(N3CCn4c(nnc4C(F)(F)F)C3)nc(OCCNC(C)=O)nc2s1` [Example 7-29, N-{2-[6-Propyl-4-(3-trifluoromethyl-5,6-dihydro-8H-[1,2,4]triazolo[4,3-a]pyrazin-7-yl)-thieno[2,3-d]pyrimidin-2-yloxy]-ethyl}-acetamide] displayed a Ki of 0.0031 µM.

`CCCC(=O)NCCOc1nc(N2CCn3c(nnc3C(F)(F)F)C2)c2cc(CCC)sc2n1` [Example 7-30, N-{2-[6-Propyl-4-(3-trifluoromethyl-5,6-dihydro-8H-[1,2,4]triazolo[4,3-a]pyrazin-7-yl)-thieno[2,3-d]pyrimidin-2-yloxy]-ethyl}-butyramide] registered a Ki of 0.0072 µM.

In turn, `CCCc1cc2c(N3CCn4c(nnc4C(F)(F)F)C3)nc(OCCNC(=O)C(C)C)nc2s1` [Example 7-31, N-{2-[6-Propyl-4-(3-trifluoromethyl-5,6-dihydro-8H-[1,2,4]triazolo[4,3-a]pyrazin-7-yl)-thieno[2,3-d]pyrimidin-2-yloxy]-ethyl}-isobutyramide] registered a Ki of 0.012 µM.

`CCCc1cc2c(N3CCn4c(nnc4C(F)(F)F)C3)nc(OCCNC(=O)CO)nc2s1` [Example 7-32, 2-Hydroxy-N-{2-[6-propyl-4-(3-trifluoromethyl-5,6-dihydro-8H-[1,2,4]triazolo[4,3-a]pyrazin-7-yl)-thieno[2,3-d]pyrimidin-2-yloxy]-ethyl}-acetamide] gave a Ki of 0.0008 µM.

In the case of `CCCc1cc2c(N3CCn4c(nnc4C(F)(F)F)C3)nc(OCCNC(=O)C(C)(C)O)nc2s1` [Example 7-33, 2-Hydroxy-2-methyl-N-{2-[6-propyl-4-(3-trifluoromethyl-5,6-dihydro-8H-[1,2,4]triazolo[4,3-a]pyrazin-7-yl)-thieno[2,3-d]pyrimidin-2-yloxy]-ethyl}-propionamide], the affinity corresponds to a Ki of 0.0067 µM.

For `CCCc1cc2c(N3CCn4c(nnc4C(F)(F)F)C3)nc(OCCNC(=O)C(C)(CO)CO)nc2s1` [Example 7-34, 3-Hydroxy-2-hydroxymethyl-2-methyl-N-{2-[6-propyl-4-(3-trifluoromethyl-5,6-dihydro-8H-[1,2,4]triazolo[4,3-a]pyrazin-7-yl)-thieno[2,3-d]pyrimidin-2-yloxy]-ethyl}-propionamide], the affinity, expressed as Ki, was 0.016 µM.

`CCCc1cc2c(N3CCn4c(nnc4C(F)(F)F)C3)nc(OCCNC(=O)C(C)(C)CO)nc2s1` [Example 7-35, 3-Hydroxy-2,2-dimethyl-N-{2-[6-propyl-4-(3-trifluoromethyl-5,6-dihydro-8H-[1,2,4]triazolo[4,3-a]pyrazin-7-yl)-thieno[2,3-d]pyrimidin-2-yloxy]-ethyl}-propionamide] registered a Ki of 0.01 µM.

For `CCCc1cc2c(N3CCn4c(nnc4C(F)(F)F)C3)nc(OC[C@H]3CCCN3)nc2s1` [Example 7-36, Hydrochloric acid salt of 7-[6-Propyl-2-((R)-1-pyrrolidin-2-ylmethoxy)-thieno[2,3-d]pyrimidin-4-yl]-3-trifluoromethyl-5,6,7,8-tetrahydro-[1,2,4]triazolo[4,3-a]pyrazine], the Ki amounted to 0.1 µM.

On to `CCCc1cc2c(N3CCn4c(nnc4C(F)(F)F)C3)nc(OC[C@@H]3CCCN3)nc2s1` [Example 7-37, Hydrochloric acid salt of 7-[6-Propyl-2-((S)-1-pyrrolidin-2-ylmethoxy)-thieno[2,3-d]pyrimidin-4-yl]-3-trifluoromethyl-5,6,7,8-tetrahydro-[1,2,4]triazolo[4,3-a]pyrazine], for which affinity was put at a Ki of 0.28 µM.

`CCCc1cc2c(N3CCn4c(nnc4C(F)(F)F)C3)nc(NCCN)nc2s1` [Example 7-38, Hydrochloric acid salt of N-1-[6-Propyl-4-(3-trifluoromethyl-5,6-dihydro-8H-[1,2,4]triazolo[4,3-a]pyrazin-7-yl)-thieno[2,3-d]pyrimidin-2-yl]-ethane-1,2-diamine]: the Ki was found to be 0.05 µM.

`CCCc1cc2c(N3CCn4c(nnc4C(F)(F)F)C3)nc(N3CC[C@@H](CNC(C)=O)C3)nc2s1` [Example 8-1, N-{(S)-1-[6-Propyl-4-(3-trifluoromethyl-5,6-dihydro-8H-[1,2,4]triazolo[4,3-a]pyrazin-7-yl)-thieno[2,3-d]pyrimidin-2-yl]-pyrrolidin-3-ylmethyl}-acetamide] came in with a Ki of 0.035 µM.

The molecule `CCCC(=O)NC[C@@H]1CCN(c2nc(N3CCn4c(nnc4C(F)(F)F)C3)c3cc(CCC)sc3n2)C1` [Example 8-2, N-{(S)-1-[6-Propyl-4-(3-trifluoromethyl-5,6-dihydro-8H-[1,2,4]triazolo[4,3-a]pyrazin-7-yl)-thieno[2,3-d]pyrimidin-2-yl]-pyrrolidin-3-ylmethyl}-butyramide] displayed a Ki of 0.11 µM.

`CCCc1cc2c(N3CCn4c(nnc4C(F)(F)F)C3)nc(N3CC[C@@H](CNC(=O)C(C)C)C3)nc2s1` [Example 8-3, N-{(S)-1-[6-Propyl-4-(3-trifluoromethyl-5,6-dihydro-8H-[1,2,4]triazolo[4,3-a]pyrazin-7-yl)-thieno[2,3-d]pyrimidin-2-yl]-pyrrolidin-3-ylmethyl}-isobutyramide] showed a Ki of 0.33 µM.

Consider `CCCc1cc2c(N3CCn4c(nnc4C(F)(F)F)C3)nc(N3CC[C@H](CNC(C)=O)C3)nc2s1` [Example 8-4, N-{(R)-1-[6-Propyl-4-(3-trifluoromethyl-5,6-dihydro-8H-[1,2,4]triazolo[4,3-a]pyrazin-7-yl)-thieno[2,3-d]pyrimidin-2-yl]-pyrrolidin-3-ylmethyl}-acetamide], for which the Ki was 0.014 µM.

The molecule `CCCc1cc2c(N3CCn4c(nnc4C(F)(F)F)C3)nc(N3CC[C@H](CNC(=O)C(C)C)C3)nc2s1` [Example 8-6, N-{(R)-1-[6-Propyl-4-(3-trifluoromethyl-5,6-dihydro-8H-[1,2,4]triazolo[4,3-a]pyrazin-7-yl)-thieno[2,3-d]pyrimidin-2-yl]-pyrrolidin-3-ylmethyl}-isobutyramide] showed a Ki of 0.12 µM. Against the preceding molecule, the Ki is about 8.6-fold higher.

Consider `CCCc1cc2c(N3CCn4c(nnc4C(F)(F)F)C3)nc(NCCNC(C)=O)nc2s1` [Example 8-7, N-{2-[6-Propyl-4-(3-trifluoromethyl-5,6-dihydro-8H-[1,2,4]triazolo[4,3-a]pyrazin-7-yl)-thieno[2,3-d]pyrimidin-2-ylamino]-ethyl}-acetamide], for which the affinity, expressed as Ki, was 0.032 µM. This Ki lies about 3.8-fold lower than the previous one.

`CCCC(=O)NCCNc1nc(N2CCn3c(nnc3C(F)(F)F)C2)c2cc(CCC)sc2n1` [Example 8-8, N-{2-[6-Propyl-4-(3-trifluoromethyl-5,6-dihydro-8H-[1,2,4]triazolo[4,3-a]pyrazin-7-yl)-thieno[2,3-d]pyrimidin-2-ylamino]-ethyl}-butyramide] registered a Ki of 0.085 µM.

The molecule `CCCc1cc2c(N3CCn4c(nnc4C(F)(F)F)C3)nc(NCCNC(=O)C(C)C)nc2s1` [Example 8-9, N-{2-[6-Propyl-4-(3-trifluoromethyl-5,6-dihydro-8H-[1,2,4]triazolo[4,3-a]pyrazin-7-yl)-thieno[2,3-d]pyrimidin-2-ylamino]-ethyl}-isobutyramide] displayed a Ki of 0.15 µM. This Ki lies about 1.8-fold higher than the previous one.

In turn, `CCCc1cc2c(N3CCn4c(nnc4C(F)(F)F)C3)nc(NC3CN(C(C)=O)C3)nc2s1` [Example 8-10, 1-{3-[6-Propyl-4-(3-trifluoromethyl-5,6-dihydro-8H-[1,2,4]triazolo[4,3-a]pyrazin-7-yl)-thieno[2,3-d]pyrimidin-2-ylamino]-azetidin-1-yl}-ethanone] yielded a Ki of 0.11 µM.

For the molecule `CCCc1cc2c(N3CCn4c(nnc4C(F)(F)F)C3)nc(N[C@H]3CCN(C(C)=O)C3)nc2s1` [Example 8-13, 1-{(S)-3-[6-Propyl-4-(3-trifluoromethyl-5,6-dihydro-8H-[1,2,4]triazolo[4,3-a]pyrazin-7-yl)-thieno[2,3-d]pyrimidin-2-ylamino]-pyrrolidin-1-yl}-ethanone], the inhibition constant (Ki) stood at 0.003 µM.

`CCCC(=O)N1CC[C@H](Nc2nc(N3CCn4c(nnc4C(F)(F)F)C3)c3cc(CCC)sc3n2)C1` [Example 8-14, 1-{(S)-3-[6-Propyl-4-(3-trifluoromethyl-5,6-dihydro-8H-[1,2,4]triazolo[4,3-a]pyrazin-7-yl)-thieno[2,3-d]pyrimidin-2-ylamino]-pyrrolidin-1-yl}-butan-1-one]: the inhibition constant Ki amounted to 0.003 µM.

In turn, `CCCc1cc2c(N3CCn4c(nnc4C(F)(F)F)C3)nc(N[C@H]3CCN(C(=O)C(C)C)C3)nc2s1` [Example 8-15, 2-Methyl-1-{(S)-3-[6-propyl-4-(3-trifluoromethyl-5,6-dihydro-8H-[1,2,4]triazolo[4,3-a]pyrazin-7-yl)-thieno[2,3-d]pyrimidin-2-ylamino]-pyrrolidin-1-yl}-propan-1-one] came in with an inhibitory constant (Ki) of 0.007 µM.

With `CCCc1cc2c(N3CCn4c(nnc4C(F)(F)F)C3)nc(N[C@@H]3CCN(C(C)=O)C3)nc2s1` [Example 8-16, 1-{(R)-3-[6-Propyl-4-(3-trifluoromethyl-5,6-dihydro-8H-[1,2,4]triazolo[4,3-a]pyrazin-7-yl)-thieno[2,3-d]pyrimidin-2-ylamino]-pyrrolidin-1-yl}-ethanone], the affinity corresponds to a Ki of 0.035 µM. This Ki lies about 5-fold higher than the previous one.
